Assay results as given in patent publication US10077243B2, “Compounds for treating disorders mediated by metabotropic glutamate receptor 5, and methods of use thereof” (Sunovion Pharmaceuticals Inc., priority 2009, dated 2018).

Biological target: T1, human mGluR5 (Homo sapiens, UniProt P41594)
T1 construct: expressed in transfected cells; host or cells: HEK293 cells stably expressing rat GLAST (EAAT1), stably transfected with pcDNAzeo3.1 carrying synthetic human mGluR5 DNA; zeocin-selected single clones
Experiment: In vitro cell-based FLIPR calcium assay for positive modulation of the activation of mGluR5 by glutamate (PAM EC50)
Conditions: HEK293/GLAST cells expressing recombinant human mGluR5; FLIPR calcium signal; glutamate added at its EC20; read-out: mGluR5 PAM EC50
How it was run: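 HEK293/GLAST cells stably expressing mGluR5 were loaded with calcium-sensitive dye (25 °C, 45–60 min) in HBSS/20 mM HEPES. Test compounds were assayed in buffer containing glutamate at that day's EC20, with FLIPR fluorescence recorded. Controls contained 0.3% DMSO without compound.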

T1 sequence (P41594 21-1212): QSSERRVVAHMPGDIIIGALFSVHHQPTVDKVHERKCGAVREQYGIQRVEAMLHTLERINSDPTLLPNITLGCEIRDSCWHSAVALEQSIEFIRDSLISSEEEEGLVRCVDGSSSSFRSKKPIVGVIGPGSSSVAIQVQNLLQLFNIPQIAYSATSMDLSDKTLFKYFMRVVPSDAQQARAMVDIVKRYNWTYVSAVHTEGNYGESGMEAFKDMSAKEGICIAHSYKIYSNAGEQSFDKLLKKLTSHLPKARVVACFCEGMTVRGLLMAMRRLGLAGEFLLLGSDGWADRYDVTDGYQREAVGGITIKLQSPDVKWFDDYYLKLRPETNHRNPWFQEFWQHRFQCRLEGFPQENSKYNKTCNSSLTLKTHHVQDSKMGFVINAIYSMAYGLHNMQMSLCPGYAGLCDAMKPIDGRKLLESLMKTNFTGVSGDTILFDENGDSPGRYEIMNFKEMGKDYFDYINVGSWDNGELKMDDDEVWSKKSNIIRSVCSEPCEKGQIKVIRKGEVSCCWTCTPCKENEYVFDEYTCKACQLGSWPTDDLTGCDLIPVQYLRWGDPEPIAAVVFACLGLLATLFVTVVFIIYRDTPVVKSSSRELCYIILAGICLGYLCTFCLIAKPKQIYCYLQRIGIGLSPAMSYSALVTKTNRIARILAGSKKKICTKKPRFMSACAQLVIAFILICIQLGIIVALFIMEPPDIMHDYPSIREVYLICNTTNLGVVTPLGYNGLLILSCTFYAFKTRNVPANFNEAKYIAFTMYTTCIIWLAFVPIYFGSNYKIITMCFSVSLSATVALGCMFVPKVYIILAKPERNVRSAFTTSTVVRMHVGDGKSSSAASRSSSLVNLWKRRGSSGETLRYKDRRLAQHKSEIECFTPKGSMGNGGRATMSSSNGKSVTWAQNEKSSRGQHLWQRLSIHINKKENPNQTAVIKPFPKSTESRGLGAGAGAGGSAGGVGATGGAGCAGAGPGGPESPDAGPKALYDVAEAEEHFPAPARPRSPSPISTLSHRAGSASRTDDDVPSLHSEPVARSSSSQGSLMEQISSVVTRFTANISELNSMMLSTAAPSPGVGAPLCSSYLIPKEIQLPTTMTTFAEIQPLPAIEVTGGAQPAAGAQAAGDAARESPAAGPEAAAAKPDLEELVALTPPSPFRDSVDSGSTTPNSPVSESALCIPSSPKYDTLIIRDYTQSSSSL

| EC50 [nM] | SMILES |
| --- | --- |
| 100 to 300 | O=c1c2ccc(C#Cc3ccccn3)cc2nc2n1CC(CO)CC2 (stereo not drawn) [Example 4.32, 8-(hydroxymethyl)-3-(pyridin-2-ylethynyl)-8,9-dihydro-6H-pyrido[2,1-b]quinazolin-11(7H)-one] |
| < 10 | COCC1CCc2nc3cc(C#Cc4cccc(F)c4)ccc3c(=O)n2C1 (stereo not drawn) [Example 4.33, 3-((3-fluorophenyl)ethynyl)-8-(methoxymethyl)-8,9-dihydro-6H-pyrido[2,1-b]quinazolin-11(7H)-one] |
| 10 to 30 | COCC1CCc2nc3cc(C#Cc4ccccn4)ccc3c(=O)n2C1 (stereo not drawn) [Example 4.34, 8-(methoxymethyl)-3-(pyridin-2-ylethynyl)-8,9-dihydro-6H-pyrido[2,1-b]quinazolin-11(7H)-one] |
| 300 to 1000 | CN(C)CC1CCc2nc3cc(C#Cc4cccc(F)c4)ccc3c(=O)n2C1 (stereo not drawn) [Example 4.36, 8-((dimethylamino)methyl)-3-((3-fluorophenyl)ethynyl)-8,9-dihydro-6H-pyrido[2,1-b]quinazolin-11(7H)-one] |
| 30 to 100 | O=c1c2ccc(C#Cc3ccccn3)cc2nc2n1CCC(CO)C2 (stereo not drawn) [Example 4.37, 7-(hydroxymethyl)-3-(pyridin-2-ylethynyl)-8,9-dihydro-6H-pyrido[2,1-b]quinazolin-11(7H)-one] |
| 10 to 30 | CC1(C)Cn2c(nc3cc(C#Cc4ccccn4)ccc3c2=O)CO1 [Example 4.40, 3,3-dimethyl-9-(pyridin-2-ylethynyl)-3,4-dihydro-[1,4]oxazino[3,4-b]quinazolin-6(1H)-one] |
| 10 to 30 | O=c1c2ccc(C#Cc3ccccn3)cc2nc2n1CC(F)(F)CC2 [Example 4.42, 8,8-difluoro-3-(pyridin-2-ylethynyl)-8,9-dihydro-6H-pyrido[2,1-b]quinazolin-11(7H)-one] |
| 10 to 30 | O=c1c2ccc(C#Cc3ccccn3)cc2nc2n1CCC1CC21 (stereo not drawn) [Example 4.43, 8-(pyridin-2-ylethynyl)-1,2,3,10b-tetrahydrocyclopropa[3,4]pyrido[2,1-b]quinazolin-5(1aH)-one] |
| < 10 | CC1(C)Cn2c(nc3cc(C#Cc4ccccn4)ccc3c2=O)C(F)(F)C1 [Example 4.44, 6,6-difluoro-8,8-dimethyl-3-(pyridin-2-ylethynyl)-8,9-dihydro-6H-pyrido[2,1-b]quinazolin-11(7H)-one] |
| 100 to 300 | CC1(O)CCc2nc3cc(C#Cc4ccccn4)ccc3c(=O)n2C1 (stereo not drawn) [Example 4.45, 8-hydroxy-8-methyl-3-(pyridin-2-ylethynyl)-8,9-dihydro-6H-pyrido[2,1-b]quinazolin-11(7H)-one] |
| 10 to 30 | COC1(C)CCc2nc3cc(C#Cc4ccccn4)ccc3c(=O)n2C1 (stereo not drawn) [Example 4.46, 8-methoxy-8-methyl-3-(pyridin-2-ylethynyl)-8,9-dihydro-6H-pyrido[2,1-b]quinazolin-11(7H)-one] |
| < 10 | CC1(C)CC(F)c2nc3cc(C#Cc4ccccn4)ccc3c(=O)n2C1 (stereo not drawn) [Example 4.47, 6-fluoro-8,8-dimethyl-3-(pyridin-2-ylethynyl)-8,9-dihydro-6H-pyrido[2,1-b]quinazolin-11(7H)-one] |
| < 10 | O=c1c2ccc(C#Cc3ccccn3)cc2nc2n1C1CCC2CC1 [Example 4.48, 3-(pyridin-2-ylethynyl)-8,9-dihydro-6H-6,9-ethanopyrido[2,1-b]quinazolin-11(7H)-one] |
| 30 to 100 | CC12CCCN1Cc1nc3cc(C#Cc4ccccn4)ccc3c(=O)n1C2 (stereo not drawn) [Example 4.49, 13a-methyl-8-(pyridin-2-ylethynyl)-2,3,13,13a-tetrahydro-1H-pyrrolo[1′,2′:4,5]pyrazino[2,1-b]quinazolin-11 (5H)-one] |
| 10 to 30 | CN1CCn2c(nc3cc(C#Cc4ccc(F)cc4)ccc3c2=O)C1 [Example 5.3, 9-((4-fluorophenyl)ethynyl)-2-methyl-3,4-dihydro-1H-pyrazino[2,1-b]quinazolin-6(2H)-one] |
| < 10 | CN1CCn2c(nc3cc(C#Cc4cccc(F)c4)ccc3c2=O)C1 [Example 5.4, 9-((3-fluorophenyl)ethynyl)-2-methyl-3,4-dihydro-1H-pyrazino[2,1-b]quinazolin-6(2H)-one] |
| 100 to 300 | CN1CCn2c(nc3cc(C#Cc4ccccn4)ccc3c2=O)C1 [Example 5.5, 2-methyl-9-(pyridin-2-ylethynyl)-3,4-dihydro-1H-pyrazino[2,1-b]quinazolin-6(2H)-one] |
| 100 to 300 | CCC(C)N1CCn2c(nc3cc(C#Cc4cccc(F)c4)ccc3c2=O)C1 (stereo not drawn) [Example 5.6, 2-(sec-butyl)-9-((3-fluorophenyl)ethynyl)-3,4-dihydro-1H-pyrazino[2,1-b]quinazolin-6(2H)-one] |
| 30 to 100 | O=c1c2ccc(C#Cc3cccc(F)c3)cc2nc2n1CCN(CCO)C2 [Example 5.8, 9-((3-fluorophenyl)ethynyl)-2-(2-hydroxyethyl)-3,4-dihydro-1H-pyrazino[2,1-b]quinazolin-6(2H)-one] |

| EC50 [nM] | SMILES |
| --- | --- |
| 100 to 300 | COCCN1CCn2c(nc3cc(C#Cc4cccc(F)c4)ccc3c2=O)C1 [Example 5.9, 9-((3-fluorophenyl)ethynyl)-2-(2-methoxyethyl)-3,4-dihydro-1H-pyrazino[2,1-b]quinazolin-6(2H)-one] |
| 300 to 1000 | O=c1c2ccc(C#Cc3cccc(F)c3)cc2nc2n1CCN(Cc1ccccc1)C2 [Example 5.10, 2-benzyl-9-((3-fluorophenyl)ethynyl)-3,4-dihydro-1H-pyrazino[2,1-b]quinazolin-6(2H)-one] |
| 100 to 300 | CCCCN1CCn2c(nc3cc(C#Cc4cccc(F)c4)ccc3c2=O)C1 [Example 5.11, 2-butyl-9-((3-fluorophenyl)ethynyl)-3,4-dihydro-1H-pyrazino[2,1-b]quinazolin-6(2H)-one] |
| 30 to 100 | CC1Cn2c(nc3cc(C#Cc4ccccn4)ccc3c2=O)CN1C (stereo not drawn) [Example 5.14, 2,3-dimethyl-9-(pyridin-2-ylethynyl)-3,4-dihydro-1H-pyrazino[2,1-b]quinazolin-6(2H)-one] |
| 30 to 100 | CC1CN(C)Cc2nc3cc(C#Cc4ccccn4)ccc3c(=O)n21 (stereo not drawn) [Example 5.15, 2,4-dimethyl-9-(pyridin-2-ylethynyl)-3,4-dihydro-1H-pyrazino[2,1-b]quinazolin-6(2H)-one] |
| 100 to 300 | CC1(C)Cn2c(nc3cc(C#Cc4ccccn4)ccc3c2=O)CN1 [Example 5.17, 3,3-dimethyl-9-(pyridin-2-ylethynyl)-3,4-dihydro-1H-pyrazino[2,1-b]quinazolin-6(2H)-one] |
| 300 to 1000 | CN1Cc2nc3cc(C#Cc4ccccn4)ccc3c(=O)n2CC1(C)C [Example 5.18, 2,3,3-trimethyl-9-(pyridin-2-ylethynyl)-3,4-dihydro-1H-pyrazino[2,1-b]quinazolin-6(2H)-one] |
| 300 to 1000 | O=c1c2ccc(C#Cc3cccc(F)c3)cc2nc2n1CC1CCCCN1C2 (stereo not drawn) [Example 5.19, 3-((3-fluorophenyl)ethynyl)-8,9,10,11,11a,12-hexahydropyrido[1′,2′:4,5]pyrazino[2,1-b]quinazolin-14(6H)-one] |
| 300 to 1000 | O=c1c2ccc(C#Cc3ccccn3)cc2nc2n1CC1CCCCN1C2 (stereo not drawn) [Example 5.20, 3-(pyridin-2-ylethynyl)-8,9,10,11,11a,12-hexahydropyrido[1′,2′:4,5]pyrazino[2,1-b]quinazolin-14(6H)-one] |
| < 10 | O=c1c2ccc(C#Cc3cccc(F)c3)cc2nc2n1CC1CCCN1C2 (stereo not drawn) [Example 5.21, 8-((3-fluorophenyl)ethynyl)-2,3,13,13a-tetrahydro-1H-pyrrolo[1′,2′:4,5]pyrazino[2,1-b]quinazolin-11(5H)-one] |
| 30 to 100 | O=c1c2ccc(C#Cc3ccccn3)cc2nc2n1CC1CCCN1C2 (stereo not drawn) [Example 5.22, 8-(pyridin-2-ylethynyl)-2,3,13,13a-tetrahydro-1H-pyrrolo[1′,2′:4,5]pyrazino[2,1-b]quinazolin-11(5H)-one] |
| 30 to 100 | O=c1c2ccc(C#Cc3ccccn3)cc2nc2n1C[C@@H]1CCCN1C2 [Example 5.23, (S)-8-(pyridin-2-ylethynyl)-2,3,13,13a-tetrahydro-1H-pyrrolo[1′,2′:4,5]pyrazino[2,1-b]quinazolin-11(5H)-one] |
| 30 to 100 | O=c1c2ccc(C#Cc3cccnc3)cc2nc2n1CC1CCCN1C2 (stereo not drawn) [Example 5.24, 8-(pyridin-3-ylethynyl)-2,3,13,13a-tetrahydro-1H-pyrrolo[1′,2′:4,5]pyrazino[2,1-b]quinazolin-11(5H)-one] |
| < 10 | O=c1c2ccc(C#Cc3ccc(F)cc3)cc2nc2n1CCOCC2 [Example 6.1, 8-((4-fluorophenyl)ethynyl)-4,5-dihydro-1H-[1,4]oxazepino[5,4-b]quinazolin-11(2H)-one] |
| 100 to 300 | CCc1ccc(C#Cc2ccc3c(=O)n4c(nc3c2)CCCCC4)cc1 [Example 6.3, 3-((4-ethylphenyl)ethynyl)-7,8,9,10-tetrahydroazepino[2,1-b]quinazolin-12(6H)-one] |
| < 10 | O=c1c2ccc(C#Cc3ccccc3)cc2nc2n1CCCCC2 [Example 6.4, 3-(phenylethynyl)-7,8,9,10-tetrahydroazepino[2,1-b]quinazolin-12(6H)-one] |
| < 10 | O=c1c2ccc(C#Cc3ccccn3)cc2nc2n1CCCCC2 [Example 6.5, 3-(pyridin-2-ylethynyl)-7,8,9,10-tetrahydroazepino[2,1-b]quinazolin-12(6H)-one] |
| < 10 | CC1CCc2nc3cc(C#Cc4ccc(F)cc4)ccc3c(=O)n2CC1 (stereo not drawn) [Example 6.6, 3-((4-fluorophenyl)ethynyl)-8-methyl-7,8,9,10-tetrahydroazepino[2,1-b]quinazolin-12(6H)-one] |
| < 10 | CC1CCc2nc3cc(C#Cc4cccc(F)c4)ccc3c(=O)n2CC1 (stereo not drawn) [Example 6.7, 3-((3-fluorophenyl)ethynyl)-8-methyl-7,8,9,10-tetrahydroazepino[2,1-b]quinazolin-12(6H)-one] |

| SMILES | EC50 [nM] |
| --- | --- |
| CC1(C)CNc2nc3cc(C#Cc4ccccn4)ccc3c(=O)n2C1 [Example 5.26, 3,3-dimethyl-9-(pyridin-2-ylethynyl)-3,4-dihydro-1H-pyrimido[2,1-b]quinazolin-6(2H)-one] | < 10 |
